# Experimental data reported in patent publication US5268308A, “Immunoassay for pyridostigmine” (priority 1989, dated 1993).
# Target: Pyridostigmine Antibody
# Assay: Cross-reactivity with pyridostigmine antibody in RIA (competition with labeled pyridostigmine)
# Type: binding, rabbit (male New Zealand white)
# Settings: labeled pyridostigmine 5000 DPM; maximum tested 500 ng
# Method: Antibodies to the pyridostigmine-BSA immunogen were produced by injecting male New Zealand white rabbits. Prior to injection, the immunogen was emulsified with an equal volume of complete Freund's adjuvant, purchased from Difco Laboratories. The initial immunization consisted of 0.8 mg of protein injected intracutaneously into the back of the rabbits. Booster injections containing 0.8 mg of immunogen and incomplete Freund's adjuvant were administered every one or two months for the next seven months. Blood was collected one week after each booster injection from the central ear vein. The blood was allowed to clot at room temperature and then centrifuged at 1500×g for 15 minutes. The separated serum was stored frozen at -20° C. until assayed for the presence of pyridostigmine antibody. […] FIG. 1 is the antibody dilution curve for pyridostigmine.
# In the assay procedure tritiated pyridostigmine having specificity of […] was used as tracer. The dilution of tracer, antisera and pyridostigmine standards were made using 0.01 M phosphate buffer containing 150 mM sodium chloride with a pH of 7.4.. […] Both standard and sample tubes were always analyzed in duplicate. The assay was carried out according to the protocol shown in. Table 1 with the reagents were added to the assay tubes in the order shown in.
# According to the protocol for the RIA of the present invention, after the addition of antisera, the contents of the tubes were mixed and incubated for 3 hours at 4° C. The antigen which bound to the antibody was separated by adding 100% saturated ammonium sulfate and centrifuging at 2500×g for 15 minutes. After aspiration of the supernatant, the precipitate was washed one time with 50% saturated ammonium sulfate; then the mixture was centrifuged and the supernatent removed. The precipitate was dissolved in 1.0 ml of distilled water, and the solution was transferred to a scintillation vial containing 10.0 ml of acquasol.
# Cross-reactivity of various compounds with pyridostigmine antibody was determined in the RIA. […] Each compound was tested for cross-reactivity with the antibody. The maximum concentration of each compound tested was 500 ng.
row,SMILES,IC 50 (50% inhibition of binding of 3H-pyridostigmine to the antibody) [ng]
1,C[n+]1ccccc1/C=N/O [Pralidoxime Chloride],> 500
2,CN(C)C(=O)Oc1cccc([N+](C)(C)C)c1 [Neostigmine],> 500
3,C[n+]1cccc(O)c1 [3-Hydroxy-N-methyl-pyridostigmine],> 500
4,CNC(=O)Oc1ccc2c(c1)[C@]1(C)CCN(C)[C@@H]1N2C [Physostigmmine],> 500
